Measured values: ChEMBL document CHEMBL3885861, “Open TG-GATES”

Species on record: Rattus norvegicus
Test: Open TG-GATES - Regimen: Single
Assay type: toxicity, organism-based, Sprague-Dawley
Parameters: regimen Single, gender Male, age 6 weeks
Details: in vivo, po, 100 mg/kg, route gavage, dose level Low; for APTT / Bas / Eos / Fbg / Hb / Ht / Lym / MCH / MCHC / MCV / Mono / Neu / PT / Plat / RBC / Ret / WBC: tissue Blood; for KIDNEY_L / KIDNEY_R / KIDNEY_TOTAL: tissue Kidney; for LIVER: tissue Liver; for A/G / ALP / ALT / AST / BUN / CRE / Ca / Cl / DBIL / GLC / IP / K / LDH / Na / PL / RALB / TBIL / TC / TG / TP / gamma-GTP: tissue Plasma

CC[C@@H](CO)NCCN[C@@H](CC)CO [ETHAMBUTOL]
TERMINAL_BW (3 h): 224 g
APTT (3 h): 21.6 s
Bas (3 h): 0%
Eos (3 h): 0.8%
Fbg (3 h): 308 mg/dL
Hb (3 h): 13.7 g/dL
Ht (3 h): 40%
Lym (3 h): 80.4%
MCH (3 h): 21.9 pg
MCHC (3 h): 34.1%
MCV (3 h): 64.2 fL
Mono (3 h): 2.4%
Neu (3 h): 14.8%
PT (3 h): 15.6 s
Plat (3 h): 118 x10_4/uL
RBC (3 h): 623.8 x10_4/ul
Ret (3 h): 8.1%
WBC (3 h): 87.8 x10_2/uL
KIDNEY_L (3 h): 1 g
KIDNEY_R (3 h): 1 g
KIDNEY_TOTAL (3 h): 2 g
LIVER (3 h): 10.9 g
A/G (3 h): 1.2
ALP (3 h): 1530.6 IU/L
ALT (3 h): 41 IU/L
AST (3 h): 73 IU/L
BUN (3 h): 12.6 mg/dL
CRE (3 h): 0.1 mg/dL
Ca (3 h): 10.4 mg/dL
Cl (3 h): 107.4 meq/L
DBIL (3 h): 0 mg/dL
GLC (3 h): 189.8 mg/dL
IP (3 h): 8.6 mg/dL
K (3 h): 4 meq/L
LDH (3 h): 172.8 IU/L
Na (3 h): 142.2 meq/L
PL (3 h): 134.2 mg/dL
RALB (3 h): 3 g/dL
TBIL (3 h): 0.018 mg/dL
TC (3 h): 72.6 mg/dL
TG (3 h): 74.4 mg/dL
TP (3 h): 5.4 g/dL
gamma-GTP (3 h): 1.8 IU/L
TERMINAL_BW (6 h): 222.5 g
APTT (6 h): 21.1 s
Bas (6 h): 0%
Eos (6 h): 0.8%
Fbg (6 h): 318 mg/dL
Hb (6 h): 13.5 g/dL
Ht (6 h): 39.8%
Lym (6 h): 78.8%
MCH (6 h): 21.8 pg
MCHC (6 h): 33.9%
MCV (6 h): 64.2 fL
Mono (6 h): 2.8%
Neu (6 h): 16%
PT (6 h): 15.8 s
Plat (6 h): 119.6 x10_4/uL
RBC (6 h): 620.4 x10_4/ul
Ret (6 h): 7.4%
WBC (6 h): 92.6 x10_2/uL
KIDNEY_L (6 h): 1 g
KIDNEY_R (6 h): 1.1 g
KIDNEY_TOTAL (6 h): 2.1 g
LIVER (6 h): 10.2 g
A/G (6 h): 1.2
ALP (6 h): 1476.2 IU/L
ALT (6 h): 45.6 IU/L
AST (6 h): 77 IU/L
BUN (6 h): 12.6 mg/dL
CRE (6 h): 0.2 mg/dL
Ca (6 h): 10.3 mg/dL
Cl (6 h): 106.6 meq/L
DBIL (6 h): 0 mg/dL
GLC (6 h): 180.4 mg/dL
IP (6 h): 9.2 mg/dL
K (6 h): 4.3 meq/L
LDH (6 h): 191.6 IU/L
Na (6 h): 140 meq/L
PL (6 h): 128.6 mg/dL
RALB (6 h): 2.9 g/dL
TBIL (6 h): 0.02 mg/dL
TC (6 h): 72.8 mg/dL
TG (6 h): 54.6 mg/dL
TP (6 h): 5.3 g/dL
gamma-GTP (6 h): 1.8 IU/L
TERMINAL_BW (9 h): 224.5 g
APTT (9 h): 22.3 s
Bas (9 h): 0%
Eos (9 h): 1%
Fbg (9 h): 293.4 mg/dL
Hb (9 h): 13.3 g/dL
Ht (9 h): 38.9%
Lym (9 h): 80%
MCH (9 h): 21.8 pg
MCHC (9 h): 34.2%
MCV (9 h): 63.6 fL
Mono (9 h): 2.2%
Neu (9 h): 15.6%
PT (9 h): 16.2 s
Plat (9 h): 116.9 x10_4/uL
RBC (9 h): 613 x10_4/ul
Ret (9 h): 8%
WBC (9 h): 92.7 x10_2/uL
KIDNEY_L (9 h): 1 g
KIDNEY_R (9 h): 1 g
KIDNEY_TOTAL (9 h): 2.1 g
LIVER (9 h): 9.4 g
A/G (9 h): 1.1
ALP (9 h): 1292.4 IU/L
ALT (9 h): 36.6 IU/L
AST (9 h): 66.8 IU/L
BUN (9 h): 10 mg/dL
CRE (9 h): 0.2 mg/dL
Ca (9 h): 10.1 mg/dL
Cl (9 h): 106.6 meq/L
DBIL (9 h): 0 mg/dL
GLC (9 h): 186.2 mg/dL
IP (9 h): 9 mg/dL
K (9 h): 4.2 meq/L
LDH (9 h): 143 IU/L
Na (9 h): 140.2 meq/L
PL (9 h): 128.2 mg/dL
RALB (9 h): 2.9 g/dL
TBIL (9 h): 0.02 mg/dL
TC (9 h): 75.4 mg/dL
TG (9 h): 59.2 mg/dL
TP (9 h): 5.4 g/dL
gamma-GTP (9 h): 1.8 IU/L
TERMINAL_BW (24 h): 238.5 g
APTT (24 h): 22.6 s
Bas (24 h): 0%
Eos (24 h): 0.6%
Fbg (24 h): 333.2 mg/dL
Hb (24 h): 13.4 g/dL
Ht (24 h): 38.7%
Lym (24 h): 82.4%
MCH (24 h): 21.7 pg
MCHC (24 h): 34.7%
MCV (24 h): 62.7 fL
Mono (24 h): 2.2%
Neu (24 h): 14%
PT (24 h): 15.9 s
Plat (24 h): 119.4 x10_4/uL
RBC (24 h): 618.4 x10_4/ul
Ret (24 h): 7.6%
WBC (24 h): 93.8 x10_2/uL
KIDNEY_L (24 h): 1 g
KIDNEY_R (24 h): 1.1 g
KIDNEY_TOTAL (24 h): 2.1 g
LIVER (24 h): 11.9 g
A/G (24 h): 1.2
ALP (24 h): 1636.2 IU/L
ALT (24 h): 46.8 IU/L
AST (24 h): 75.6 IU/L
BUN (24 h): 17 mg/dL
CRE (24 h): 0.1 mg/dL
Ca (24 h): 10.7 mg/dL
Cl (24 h): 106.6 meq/L
DBIL (24 h): 0 mg/dL
GLC (24 h): 186 mg/dL
IP (24 h): 8.2 mg/dL
K (24 h): 4.1 meq/L
LDH (24 h): 129.2 IU/L
Na (24 h): 141.8 meq/L
PL (24 h): 157.6 mg/dL
RALB (24 h): 3.1 g/dL
TBIL (24 h): 0.012 mg/dL
TC (24 h): 88.8 mg/dL
TG (24 h): 87.4 mg/dL
TP (24 h): 5.7 g/dL
gamma-GTP (24 h): 2.2 IU/L
